Results on nine compounds are retold here after patent US8691768B2, “Methods of determining delta opioid receptor subtypes” (The Regents of the University of California, priority 2008, dated 2014).

Data set [1] deals with C57BL/6 mice. The data set can be described thus: Limited access 2-bottle choice drinking paradigm (water or 10% ethanol). The data set is classed as in vivo. The conditions noted are these: for ethanol consumption (drinking behavior): 5 mg/kg s.c. alone, 4 hour 2-bottle choice. How it is done:
Male C57BL/6 mice (20-23 g, Taconic) were individually housed in ventilated PLEXIGLAS® cages at ambient temperature (21° C.) in a room maintained on a reversed 12L:12D cycle (lights off at 10.00, lights on at 22.00). Food and water was provided ad libitum. The mice were given time to acclimatize to the individual housing conditions and reverse light cycle before the start of the experiments. Mice were weighed weekly. All procedures were pre-approved by the Gallo Center Institutional Animal Care and Use Committee and were in accordance with National Institutes of Health Guide for the Care and Use of Laboratory Animal.
From Monday through Friday, mice were presented with a 2-bottle choice (water or 10% ethanol) for a 4 hour period (11.00-15.00) while in the dark cycle. Outside the 2-bottle choice period, all mice had unlimited access to water. All fluids were presented in 100-ml graduated glass cylinders with stainless-steel drinking spouts inserted through two grommets in front of the cage. Bottles were weighed to the nearest decigram (0.1 g) at the start and end of the 2-bottle choice period. The positions of the tubes containing water and ethanol were reversed daily to limit the effects of positional preference. Mice (9 per group) were injected with drugs subcutaneously (s.c.) on Friday 30 minutes before the start of the 2-bottle choice period.
(§1) Ethanol and sucrose solutions were prepared in tap water using 95% (vol/vol) ethanol (Gold Shield Chemical Co., Hayward, Calif., USA). Naltriben mesylate (NTB), 7-benzylidenenaltrexone maleate (BNTX) were purchased from Tocris (MO, USA). TAN-67 dihydrobromide, naltrindole hydrochloride (NTI) and naltrexone hydrochloride (NTX) were from Sigma-Aldrich (MO, USA). All compounds were dissolved in saline, with the exception of BNTX and NTB, which were dissolved in 5% DMSO. All drugs were made up immediately prior to injection and were administered s.c. at a volume of 10 ml/kg.
Baseline values were determined by taking the average of the consumption over the three days prior to injection. Statistical analysis was performed using Prism software (GraphPad, San Diego, Calif.). Significance was determined by means of one-way ANOVA or two-way ANOVA (repeated measures). A post-hoc Newman-Keuls (one-way ANOVA) or Bonferroni (two-way ANOVA) test was used when a significant overall effect was found (p<0.05). (*, p<0.05; **, p<0.01; ***, p<0.001).

Data set [2] concerns the target delta opioid receptor (DOP-R) (rat) (UniProt P33533). In words: cell-based or functional assay.
The conditions of data set [3]: numerous animal studies; cited from earlier work.
The conditions of data set [4]: clinical studies; cited from earlier work.
In data set [5] the test system is chronically drinking rats. In words: Drinking of chronically drinking rats after systemic administration. The data set is classed as in vivo. How it is done:
(§2) Male Lewis rats (Harlan Laboratories, Indianapolis, Ind.) weighing between 275-300 g were individually housed in a temperature controlled colony room (21° C.) maintained on a reversed light/dark cycle 12L:12D cycle (lights off at 10 A.M., lights on at 10 P.M.). All experiments were performed during the dark portion of the cycle. Food and water was provided ad libitum.
(§3) Ethanol was administered via a two-bottle continuous access, free-choice paradigm in which one bottle contained 10% ETOH (v/v) and the other bottle contained water. Sucrose was never added to the ethanol solution. The amount of ETOH and water consumed was measured at the same time daily (10 A.M.). […] Animals were weighed daily. Bottles were identical and their positions were counterbalanced and rotated daily. Change in drinking was calculated by subtracting the amount of drinking (mg/kg) on the day following treatment from the amount of drinking (mg/kg) on the day prior to treatment.

A short description of data set [6]: Rewarding effect of TAN-67 (Example 4, method not given). Format: in vivo. The following applies: therapeutically effective dose.
The test system of data set [7] is C57BL/6 mice. The data set can be described thus: Locomotor activity assay. The data set is classed as in vivo. The following applies: assayed 30 minutes after injection for 4 hours. How it is done: To determine the effect of DOP-R subtype-selective drugs on mouse locomotion, the following locomotor activity assay was performed. On the testing day, mice (n=8) were habituated to the locomotor boxes for 30 minutes prior to the behavioral assay. Mice were injected s.c. with vehicle (saline or 5% DMSO), 25 mg/kg TAN-67 or 6 mg/kg NTB and placed back in the locomotor boxes. Locomotor activity was assayed 30 minutes after injection for 4 hours using Accuscan Digipro activity monitors (Accuscan, Columbus, Ohio). All mice were tested during their light phase between the hours of 9.00 and 14.00. Mice were placed into custom-made acrylic boxes that were 21×21 cm and 28 cm tall. One acrylic box was used per single Accuscan monitor (Accuscan). Activity monitors were themselves housed inside sound-attenuating chambers (Med-Associates, St Albans, Vt.) equipped with lights and fans, both of which were turned on during the testing session. To eliminate variability due to handling and novelty, on the two days before the testing day, mice were habituated to the locomotor boxes for 30 minutes injected with saline and placed in the locomotor box for an additional 30 minutes.

The test system of data set [8] is C57BL/6 mice. The data set can be described thus: Sucrose intake (natural reward). The following applies: mouse, in vivo. How it is done: as §1
The test system of data set [9] is Lewis rats, ventral tegmental area (VTA). In words: Ethanol self-administration (two-bottle continuous access) after microinjection into the VTA. Format: in vivo. The conditions noted are these: 0.2 mM microinjected into VTA. On the procedure: as §2, §3
Animals were anesthetized and maintained on isoflurane (0.5 l/min) as needed for the duration of surgery. Animals were placed in a stereotaxic frame and were implanted with bilateral 26-gauge stainless steel chronic guide cannulas (Plastincs One, Roanoke, Va.) into the VTA (AP, −5.8; ML, ±0.5; DV, −7.0) based on the atlas of Paxinos and Watson (1997, The rat brain in sterotaxic coordinates, compact, Ed 3. San Diego: Academic). Cannulas were secured to the skull with dental cement. At the end of the surgical procedure, animals were treated with penicillin and topical antibiotics. A stainless steel dummy cannula (Plastics One) was inserted into each guide cannula and remained in place when the guide cannulas were not in use. Animals were allowed a 1 week recovery period before behavioral testing.
Each injection was made using a 1 μl syringe (Hamilton, Reno, Nev.) attached to 20 cm of PE 50 tubing connected to a 33-gauge injection cannula (Plastics One). Microinjections of 0.5 μl volumes were given at a rate of 0.5 μl/min using a syringe pump (kd Scientific, Hollister, Mass.) into each side of the VTA, except for bicuculline injections, where 0.25 μl was injected per side. Injection cannulas extended 2 mm beyond guide cannulas and were left in place for 1 min following microinjections to minimize the backflow of drug solution. In addition to drug microinjections, physiological saline microinjections were made in every rat to measure the effect of the injection manipulation alone on drinking Drug injections were randomized and counterbalanced. Change in drinking due to drug microinjections was calculated by comparing both the previous day's consumption (“baseline”) and to saline injection. At the conclusion of the experiment, animals were anesthetized with pentobarbital and perfused intracardially through the ascending aorta with 0.1 M phosphate buffered saline followed by 10% formalin. Brains were sectioned coronally at 50 μm, mounted and stained with cresyl violet. Only animals with confirmed injection sites within the VTA were included. No behavioral differences were observed between animals with anterior compared with posterior cannula placements.
For behavioral experiments, DPDPE (10mM; Sigma, St. Louis, Mo.), TIPP-ψ (5 μM; NIDA, Bethesda, Md.), Bicuculline (1 mM; Sigma), DAMGO (0.2 mM; Sigma), and CTOP (10 mM; Tocris, Ellisville, Mo.) were prepared in physiological saline for microinjection into the VTA. For electrophysiology, all drugs were applied by bath perfusion. Stock solutions were made and diluted in artificial CSF immediately before application. All chemicals were obtained from Sigma or Tocris except TIPP-ψ, which was acquired from NIDA.
Results are presented as mean±SEM where appropriate. For behavioral data, drinking was analyzed using 24 h time points. Raw drinking data were used for paired Student's t test comparisons probing drug effects on drinking compared with baseline or saline injections, a more conservative comparison than analyzing normalized data. […]

The test system of data set [10] is GABAA IPSCs in VTA neurons. In words: Slice electrophysiology, whole-cell patch-clamp of GABAA IPSCs in VTA neurons. The data set is classed as cell-based, Lewis rats. The following applies: animals treated with 5 mg/kg morphine IP twice daily for 7 days.
Data set [11] concerns DOR. In words: Immunocytochemistry of DOR expression in VTA tissue. The following applies: chronic treatment, once daily 0.5 mg/kg for 20 days. The data set is classed as in vivo, Lewis rats.
Protocol: Materials and Methods: Male Lewis rats (250-300 g) were housed as in Example 8. In the first part of the experiment, rats received once daily injections of 0.5 mg/kg morphine for 20 days, after which they were sacrificed and the VTA tissue was examined for DOR expression. Standard immunocytochemical methods were used with a DOR-targeted antibody (SC9111) purchased from Santa Cruz Biotechnology, Inc. For electrophysiology experiments, rats received twice daily injections, 10 hours apart, of 5 mg/kg morphine IP for 7 days.

Structures can show the parent of a compound that is named as a salt. Where two headings read alike, the source gives them in different places.

Chain of delta opioid receptor (DOP-R) (rat) (P33533 whole entry, stated change not applied): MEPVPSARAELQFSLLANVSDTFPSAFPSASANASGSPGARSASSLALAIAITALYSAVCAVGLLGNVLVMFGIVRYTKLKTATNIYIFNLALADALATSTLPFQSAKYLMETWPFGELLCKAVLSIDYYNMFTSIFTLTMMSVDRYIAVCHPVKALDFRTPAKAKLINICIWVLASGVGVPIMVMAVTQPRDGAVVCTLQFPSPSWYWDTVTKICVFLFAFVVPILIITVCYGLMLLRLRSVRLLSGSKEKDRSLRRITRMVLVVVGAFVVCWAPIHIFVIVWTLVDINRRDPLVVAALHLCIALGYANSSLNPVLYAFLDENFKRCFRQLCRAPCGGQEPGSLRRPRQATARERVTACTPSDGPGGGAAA

As for `Oc1ccc2c3c1O[C@H]1c4[nH]c5ccccc5c4C[C@@]4(O)[C@@H](C2)N(CC2CC2)CC[C@]314` [NTI, naltrindole hydrochloride], in data set [1] (10 or 15 mg/kg s.c.), the ethanol consumption entry was “did not alter” and the ethanol preference result is “did not alter”.

On to “(2-D-penicillamine, 5-D-penicillamine)-enkephalin (DPDPE) (peptide)”, for which the saturating dose for inhibition of evoked IPSCs (dose-response in the presence of 1 µM CTAP) in data set [2] worked out at 1 µM.

For TIPP-ψ (peptide), in [2], the evoked IPSC amplitude, decrease from baseline, antagonist alone (n=3) came out at 6.8%; the spontaneous IPSC amplitude, decrease, antagonist alone (n=2) turned out to be 2.6%; the spontaneous IPSC frequency, decrease, antagonist alone (n=2) was determined as 8.6%.

With `O=C1CC[C@@]2(O)[C@H]3Cc4ccc(O)c5c4[C@@]2(CCN3CC2CC2)[C@H]1O5` [NTX, naltrexone hydrochloride], the ethanol consumption result in data set [1] (1.5 mg/kg s.c., 30 min before 4 hour 2-bottle choice) is given as “decrease in ethanol consumption”; in data set [3], “decrease ethanol consumption”; in [4], “decrease ethanol consumption”. The “ethanol consumption (drinking behavior)” value in data set [1] is listed as “only moderate effects”.

For `COC(=O)/C=C/C(=O)N[C@@H]1CC[C@@]2(O)[C@H]3Cc4ccc(O)c5c4[C@@]2(CCN3CC2CC2)[C@H]1O5` [beta-FNA, β-funaltrexamine], the drinking result in data set [5] is “decrease their drinking”.

As to `CN1CCC2(c3cccc(O)c3)Cc3nc4ccccc4cc3CC2C1` (stereo not drawn) [TAN-67, 2-methyl-4 alpha alpha-(3-hydroxyphenyl)-1,2,3,4,4a,5,12,12 alpha alpha-octahydro-quinolino[2,3,3,-g]isoquinoline], in data set [1] (12.5 mg/kg s.c. alone), the ethanol consumption result is given as “no effect”. In [1] (dose dependence, s.c.), the ethanol consumption entry is “dose-dependent decrease” and the ethanol preference entry is “dose-dependent decrease”. Besides, in data set [6], the rewarding by itself result was “not rewarding”. The “locomotor activity compared to vehicle treated animals” value in data set [7] (25 mg/kg s.c.) is given as “did not show any significant difference”. For the same compound, in data set [8], the sucrose intake result was “neither TAN-67 [F(1,16)=0.057, p=0.81] nor NTB [F(1,16)=0.62, p=0.44]had an affect”.

As for Naltriben mesylate [NTB], the “ethanol consumption (drinking behavior)” value in data set [1] is “no effect”. Also, in data set [1] (dose dependence, s.c.), the ethanol consumption result is recorded as “dose dependently decreased” and the ethanol preference entry is “dose dependently decreased”. In addition, the “locomotor activity compared to vehicle treated animals” value in [7] (6 mg/kg s.c.) is given as “did not show any significant difference”. Moreover, the sucrose intake result in data set [8] is “neither TAN-67 [F(1,16)=0.057, p=0.81] nor NTB [F(1,16)=0.62, p=0.44]had an affect”.

For the compound `C[C@@H](NC(=O)[C@@H](N)Cc1ccc(O)cc1)C(=O)NCC(=O)N(C)[C@@H](Cc1ccccc1)C(=O)NCCO` [DAMGO], the “drinking (EtOH)” value in [9] was “did not affect drinking”.

For `CN1CC[C@]23c4c5ccc(O)c4O[C@H]2[C@@H](O)C=C[C@H]3[C@H]1C5` [morphine], the “electrically evoked GABA release on activating DOR1” value in [10] was “inhibits electrically evoked GABA release”. In addition, the “DOR expression in the VTA” value in [11] is on record as “increases”.
